According to US6582907B1, “Use of fluorescence correlation spectroscopy to identify compounds that bind to target species under isothermal denaturing conditions” (Pharmacia & Upjohn Company, priority 1999, dated 2003):

Biological target: T1, HIV-1 protease (Human immunodeficiency virus type 1 group M subtype B, UniProt P04585)
T1 construct: The enzyme HIV-1 protease exists as a dimer
Experiment: Isothermal denaturation of Oregon Green-labelled HIV-1 protease monitored by fluorescence correlation spectroscopy (FCS)
Format: binding
Protocol: HIV-1 Protease. HIV-1 Protease was extensively dialyzed against 0.1 M sodium phosphate, 0.05% NaN3, pH 6.5, at 5° C., using a Pierce Slide-A-Lyzer™ (2,000 MWCO). The protease concentration was approximately 1 mg/mL. There was a slight turbidity after dialysis. Protease recovery was assumed to be 100% (53 nanomoles in 1.1 mL).
A freshly prepared solution of Oregon Green™ Iodoacetamide (Molecular Probes Inc., Cat. No. O-6010; approximately 10 mM in DMSO) was added at zero and 5 hours of incubation to achieve at each time a 3-fold molar ratio of Oregon Green™ to protease. At approximately 8 hours another addition of a 4-fold molar excess was made. After each addition the solution was gently but thoroughly mixed. Incubations were without agitation at 5° C. and continued for 16 hours after the last addition.
The resulting clear solution was chromatographed over a Bio-Gel P-6 Desalting Gel™ column (0.9 cm×25 cm) using 50% volume/volume (v/v) glacial acetic acid/distilled-water as the eluant. […]
The solution of conjugated protease was 0.2 micron filtered and evaluated for Oregon Green™ concentration by extinction and for protease concentration by amino acid analysis. Spectrophotometric results determined an Oregon Green™ concentration of 1.94 μM. […]
Microfuge tubes containing 1.5 mL buffer were placed in a pre-equilibrated 48° C. water bath and the temperature was monitored with a telethermometer. […]
This material was diluted to 10 nM in a 2.0 mL teflon chamber already located on the microscope stage containing the same buffer at room temperature. […] Binning combines the fluorescence measurements from contiguous time-periods. […]
The autocorrelated data were analyzed with a nonlinear least squares (NLLSF) fitting program based on that disclosed in Yamaoka et. al., J. Pharmacobio Dyn., 4, 8-15 (1981). […]
In these experiments, since both native and denatured proteins exist, the calculated results represent an average value for the amount of material in the two states. […] The data were analyzed with weighting values of either zero or single inverse weighting. […]

[1] = HIV-1 protease incubated with compound at 48° C. for 24 minutes, single inverse weighting, FIG. 8B

With `CCC[C@@]1(CCc2ccccc2)CC(O)=C([C@H](CC)c2cccc(NS(=O)(=O)c3ccc(C(F)(F)F)cn3)c2)C(=O)O1` [PNU-140690] the “stabilization of HIV-1 protease against isothermal denaturation (change in apparent diffusion coefficient as a function of time)” value (48° C., time points 0 to 60 minutes, with vs without compound, FIG. 9) was “clearly stabilizes the enzyme”, the “G(0) (unimolecular model, autocorrelation curve)” value [1] was 292×10^−3±11.7×10^−3 and the “diffusion coefficient (unimolecular model, autocorrelation curve)” value [1] was 1.33×10^−6±0.09×10^−6.
